According to the NIST ThermoML archive (doi:10.1016/j.jct.2012.08.030):

Key:
[1] = xn = mol fraction of the nth substance listed; settings: 313.15 K, 101.3 kPa, Liquid; for speed of sound: Sing-around technique in a fixed-path interferometer; for mass density: Vibrating tube method
[2] = refractive index (Na D-line) (dimensionless); xn = mol fraction of the nth substance listed; settings: 101.3 kPa, Liquid, Standard Abbe refractometry

CCCCn1cc[n+](C)c1.COS(=O)(=O)[O-] [1-butyl-3-methylimidazolium methyl sulfate] + CO
[1]
Settings | mass density [kg/m3] | speed of sound [m/s]
x1 = 0.0422 | 857.888 | 1146.2
x1 = 0.094 | 929.815 | 1230.8
x1 = 0.1857 | 1016.06 | 1343.9
x1 = 0.2858 | 1073.54 | 1424.6
x1 = 0.3729 | 1107.37 | 1473.6
x1 = 0.4772 | 1135.72 | 1515.7
x1 = 0.5769 | 1155.64 | 1545.9
x1 = 0.6775 | 1170.94 | 1569.2
x1 = 0.7947 | 1184.65 | 1590.3
x1 = 0.8923 | 1193.93 | 1605.1
x1 = 0.9526 | 1198.87 | 1612.9
x1 = 1 | 1202.01 | 1617.9

refractive index, [2]
Settings | 298.15 K | 303.15 K | 308.15 K | 313.15 K
x1 = 0.0422 | 1.35708 | 1.35523 | 1.35331 | 1.35141
x1 = 0.094 | 1.38271 | 1.38094 | 1.37913 | 1.37735
x1 = 0.1857 | 1.41321 | 1.41156 | 1.4099 | 1.40827
x1 = 0.2858 | 1.43348 | 1.43193 | 1.43036 | 1.4288
x1 = 0.3729 | 1.44537 | 1.44388 | 1.44239 | 1.4409
x1 = 0.4772 | 1.45531 | 1.45387 | 1.45242 | 1.45097
x1 = 0.5769 | 1.46226 | 1.46087 | 1.45945 | 1.45804
x1 = 0.6775 | 1.46761 | 1.46624 | 1.46485 | 1.46348
x1 = 0.7947 | 1.47248 | 1.47111 | 1.46972 | 1.46836
x1 = 0.8923 | 1.47576 | 1.4744 | 1.47303 | 1.47168
x1 = 0.9526 | 1.47744 | 1.47608 | 1.47475 | 1.47338
x1 = 1 | 1.47824 | 1.47704 | 1.47577 | 1.47443
